Test results: patent US11465980B2, “6-membered aza-heterocyclic containing delta-opioid receptor modulating compounds, methods of using and making the same” (Trevena, Inc., priority 2015, dated 2022)

Assays:
[1] = tested on: mouse; test: Tactile allodynia produced by nitroglycerin (migraine model, mouse); assay type: in vivo; conditions: route sc, nitroglycerin 10 mg/kg ip, p < 0.05 vs vehicle
Method: Compounds were tested for efficacy in rodent models of nitroglycerine induced migraine. In this model both rats and mice can be induced to have a behavioral response consistent with the progression of a migraine attack by the intraperitoneal injection of nitroglycerin. In this test mice or rats (n=8/group) are given an intraperitoneal injection of nitroglycerin at 10 mg/kg. After 90 minutes the animals are subcutaneously dosed with test compound. A measurement of mechanical allodynia will be obtained using the up/down method with seven von Frey monofilaments. There is a specific series used for rat and mouse. Each monofilament is delivered to the hind paw for approximately 1-2 seconds. If there is a response, the next lower force will be delivered. This procedure will be performed until no response was made at the highest force or until four stimuli are administered following the initial response. The 50% paw withdrawal threshold for the hind paw will be calculated using the following formula: [Xth]log=[vFr]log+ky where [vFr] is the force of the last von Frey used, k is the average interval (in log units) between the von Frey monofilaments, and y is a value that depends upon the pattern of withdrawal responses. Testing for tactile sensitivity will be performed and a withdrawal value will be assigned as the tactile sensitivity (expressed in grams of force required to elicit a response) for the injected paw for each animal. Data is presented as the mean grams required to produce a hind paw withdrawal from the von Frey stimulus. […] Compounds found to be effective in this model of migraine at the doses indicated, although other doses may also be active. Other compounds described herein were not necessarily tested, but are expected to be able have some level of efficacy.

[2] = tested on: rat; test: Mechanical allodynia after Freund's Complete Adjuvant, Randall-Selitto (rat); assay type: in vivo; conditions: route sc, p < 0.05 vs vehicle
Method: (§1) Animals were acclimated to the vivarium for at least 48 hr prior to behavioral testing. Inflammation was induced for both rodent species with the administration of an intraplantar (subcutaneous injection into the plantar surface of the hind paw, i.pl.) injection of 0.10 ml Freund's Complete Adjuvant (FCA).
For rat studies, the experiments were conducted 24 hours after CFA administration. Rats are tested for mechanical allodynia in a Randall-Selitto apparatus. The inflamed paw is put on a pedestal and a pointed force of increasing intensity (0 to 250 grams) is applied to the paw. When the animal struggles to withdraw from the force the test is stopped and the force to induce that struggle is recorded. Data may be presented as mean grams of force to withdrawal or a percentage of the maximum possible effect.

[3] = tested on: rat; test: Tactile allodynia produced by nitroglycerin (migraine model, rat); assay type: in vivo; conditions: route sc, po, nitroglycerin 10 mg/kg ip, p < 0.05 vs vehicle
[4] = tested on: mouse; test: Tactile allodynia produced by intraplantar Freund's Complete Adjuvant, von Frey (mouse); assay type: in vivo; conditions: route sc, p < 0.05 vs vehicle
Method: as §1
For mouse studies, the experiments were conducted 48 hours after FCA administration. Tactile allodynia was measured using a series of von Frey monofilaments. These filaments are bendable, plastic and intended to poke, not penetrate, the skin. Animals were placed in a Plexiglas chamber (approximately 10 cm×20 cm×25 cm) and allowed to habituate for 5-10 minutes. The chamber was positioned on top of a mesh screen so that von Frey monofilaments can be presented to the plantar surface of the hind paw that is inflamed. The measurement of tactile sensitivity for the injected hind paw is obtained using the up/down method (LaBuda and Little, 2005, J Neurosci. Methods, 144, 175) with […]. Each trial will start with a von Frey force of 0.6 grams delivered to the hind paw for approximately 1-2 seconds. If there was no withdrawal response, the next higher force was be delivered. If there was a response, the next lower force was delivered. This procedure was performed until no response was made at the highest force (2 grams) or until four stimuli are administered following the initial response. The 50% paw withdrawal threshold for the hind paw was be calculated using the following formula: [Xth]log=[vFi]log+ky where [vFr] is the force of the last von Frey used, k is the average interval (in log units) between the von Frey monofilaments, and y is a value that depends upon the pattern of withdrawal responses (Dixon, Annual Review Pharmacol Toxicol, 1980, 20, 441).

[5] = tested on: male c57bl6J mice; test: Tactile allodynia produced by repeat dosing of test drug (induction of medication overuse headache); assay type: in vivo, mouse; conditions: daily for 11 days; B1049 10 mg/kg s.c., sumatriptan 0.6 mg/kg i.p.; FIG. 5
Method: Mice (25 male c57bl6J mice, n=4-5/group) were habituated for 2 days on testing rack prior to injections. Mice were treated with vehicle (VEH-VEH (saline), VEH-B1049 (10% BCD-saline)), sumatriptan (SUMA) (0.6 mg/kg, i.p.), SNC80 (10 mg/kg, i.p.), or B1049 (10 mg/kg, s.c.) daily for 11 days. Mechanical sensitivity was measured as the 50% withdrawal threshold to manual von Frey hair stimulation on days 1 and 11. On these days, mice were habituated to the rack for 15-20 min, following which baseline mechanical thresholds were determined prior to administration of drug or control. On day 1 following assessment of baseline mechanical threshold, mice were weighed and injected with drug or control and returned to home cage. The results are illustrated in FIG. 5.

[6] = tested on: rat; test: Hemilesioned rat 6-OHDA model (bar, drag, rotarod tests); assay type: in vivo; conditions: route sc, p < 0.05 vs vehicle
Method: Compounds were tested for efficacy in reversing akinesia and bradykinesia in two well accepted rodent Parkinson's disease (PD) models; the haloperidol-induced rat catalepsy and 6-OHDA rat hemiparkinson lesion models.
In the hemilesioned rat 6-OHDA model, the effect of compound on the akinetic response to lesioning of the contralateral forepaw in the bar test and stepping activity as measured by the drag test were determined. […] This assay examines efficacy for reversing PD motor symptoms (i.e. akinesia/bradykinesia and gait abilities). The behavioral readouts will include immobility time in the bar test (akinesia), number of steps in the drag test (akinesia/bradykinesia) and time spent on rod in the rotarod test (overall gait ability, gross motor behavior). Compounds were administered subcutaneously and efficacy was evaluated between 30 and 90 min post dose.

[7] = tested on: male c57bl6J mice; test: Reversal of opioid-induced hyperalgesia (morphine); assay type: in vivo, mouse; conditions: 10 mg/kg s.c., 30 min prior to testing; morphine twice daily for 4 days; FIG. 4
Method: Next it was determined that B1049 could reverse opioid-induced hyperalgesia. Mice (44 male c57bl6J mice, n=8-9/group) were habituated for 2 days on testing rack prior to injections. Mice were treated with vehicle (VEH-VEH (saline), VEH-B1049 (10% BCD-saline)) or morphine (MORPH) (20 mg/kg, s.c. days 1-3, 40 mg/kg s.c. day 4) twice daily (9 a.m. and 5 p.m.) for 4 days. Mechanical sensitivity was measured as the 50% withdrawal threshold to manual von Frey hair stimulation on day 5. Baseline measurement were taken 16 hours after final MORPH/VEH injection and 3 h later, post-drug measurements were taken after dosing with B1049 (10 mg/kg, s.c., 30 min prior to testing) or SNC80 (10 mg/kg, i.p., 45 min prior to testing). (***p<0.001 compared to post-drug SUMA-VEH). The results are illustrated in FIG. 4.

COCCOc1cccc([C@@H]2CCN(CCn3cccc3)[C@H](C)[C@H]2COc2ccc3c(c2)C(=O)NC3)c1 (relative stereo) [Compound B1049, (−)-6-{[(trans, trans)-4-[3-(2-methoxyethoxy)phenyl]-2-methyl-1-[2-(1H-pyrrol-1-yl)ethyl]piperidin-3-yl]methoxy}-2,3-dihydro-1H-isoindol-1-one]
Active Migraine Doses [1]: ≤10 mg/kg
Active CFA Dose [2]: ≤10 mg/kg
Active Migraine Doses [3]: ≤30 mg/kg
Active CFA Dose [4]: ≤10 mg/kg
induction of medication overuse headache (tactile allodynia after repeat dosing) [5]: does not induce medication overuse headache
Active Dose (hemilesioned rat 6-OHDA model) [6]: ≤30 mg/kg
reversal of opioid induced hyperalgesia [7]: able to reverse opioid induced hyperalgesia
